Series [1] can be described thus: Franz cell diffusion test, penetration through human skin ex vivo. The class given is in vitro ADME. The settings on record: human skin 1 mm, 100 μl at 5 mg/ml, 24 h, PBS pH 7.4 receiver, 2 cm^2. From the text:
The test used is the Franz cell diffusion test.
Franz cells are used to determine, ex vivo, the skin penetration of exogenous substances, and to actually measure the speed of passage through the various layers of the skin barrier of the molecules constituting the active ingredient deposited at the surface of the skin.
A solution containing the molecule to be studied is deposited in a “donor” department of the device. The molecule then diffuses through a membrane (in the case in point the skin) and is collected in a “receiver” compartment.
In practice, after having removed the hypodermal layer (adipose tissue), the skin fragment is deposited on a diffusion cell, called a Franz cell. The deep face of the dermis is in contact with a receiver solution which is supposed to replace the interstitial fluid of the skin. A solution containing the molecule studied is deposited on top of the skin. […]
The nanofitin concentration was measured on each of the samples taken, using the BioLayer Interferometry technology which makes it possible to measure the interaction between two proteins. In the case in point, the nanofitin content is measured by the recognition of a poly-Histidine tag which is coupled to said nanofitins beforehand.

In series [2] the test system is skin inflammation similar to psoriasis caused by imiquimod (Aldara). Kind of series: Imiquimod-induced psoriasis-type ear inflammation, topical treatment, PASI score. The following applies: cream on right ear; mice licked their ears, systemic effect after ingestion very probable. In kind it is in vivo, Balb/c mice. As to the method: In order to verify the skin penetration of nanofitins and the preservation of their properties, in particular their property of neutralizing the receptor-ligand relationship, inflammation models of psoriasis type were used and the reduction in inflammation (PASI score) after topical administration of anti-inflammatory nanofitins directly to the skin was measured.
These nanofitins target two different cytokines involved in psoriasiform inflammation, but with different localizations, from the basal layers of the dermis just into the epidermis (Nestle et al., Nature Reviews Immunology 9, 679-691, 2009). The nanofitins in question neutralize the binding of the targeted cytokines with their receptor. In order to inhibit the action of these cytokines during inflammation of psoriasis type, it is necessary to reach the layers where they are located, either systemically as therapeutic antibodies do, or topically via the skin. The measurement of an anti-inflammatory effect by topical administration of nanofitins thus attests to penetration of the nanofitins through the skin and to an associated therapeutic efficacy.
The local application of imiquimod (Aldara) to the internal face of the ears of mice causes a skin inflammation similar to psoriasis (Van der Fits et al., J Immunol. 2009 May 1; 182(9):5836-45, Flutter et al., Eur J Immunol. 2013 December; 43(12):3138-46). […]

Series [3] in a line: Penetration through rabbit cornea in reaction chambers. The class given is in vitro ADME. The following applies: male, Fauve de Bourgogne, 37° C., sampling 0 h, 2 h and 4 h, 0.5 cm^2, read-out: apparent permeability.
Experimental: Three male rabbits (Fauve de Bourgogne) were used.
The principle is the same as for the skin permeability.
3 ml of formulation containing each nanofitin were placed on the donor side of the reaction chambers and 3 ml of PBS were placed on the receiver side. Freshly taken corneal tissues were placed between the two half-chambers.
The temperature was maintained at 37° C. throughout the study and the oxygenation was provided by continuous perfusion of carbogen (95% O2, 5% CO2). The exchange surface area was 0.5 cm^2.
At each following sampling period: 0 h, 2 h and 4 h, 500 μl of liquid were taken from the receiver side and replaced with PBS. • 100 μl of liquid were taken from the donor side and were not replaced.
At the end of the sampling period, the 0.5 cm^2 of corneas were removed from the reaction chamber and scraped with a scalpel. 1 ml of PBS was added to the samples, which were homogenized.

The structures appear in SMILES notation.

Regarding `Cn1c(=O)c2c(ncn2C)n(C)c1=O` [caffeine], the “percentage found on the receiver side (skin permeability)” value in series [1] is around 10%.
Consider `C[C@H]1C[C@H]2[C@@H]3CCC4=CC(=O)C=C[C@]4(C)[C@@]3(F)[C@@H](O)C[C@]2(C)[C@@]1(O)C(=O)CCl` [clobetazole], for which the “inflammation on the nontreated left ear” value in series [2] is given as “reduction in the inflammation on the nontreated left ear”.
As to `CCn1cc(C(=O)O)c(=O)c2cc(F)c(N3CCNCC3)cc21` [norfloxacin], in series [3], the Papp at 4 h turned out to be 11 ×10⁻⁶ cm/s.

Source of the values: US10898542B2, “Topical compositions comprising OB-fold variants” (AFFILOGIC, priority 2013, dated 2021).
